Assay results: US20120309798A1, “Tumour Treatment Agents and Method” (Vivolux AB, priority 2009, published 2012)

Assays:
[1] = test system: ALL (Acute Lymphocytic Leukemia) patient tumor cells; assay: Fluorometric Microculture Cytotoxicity Assay (FMCA), patient tumor samples, ALL; type: cell-based; details: Homo sapiens, range over n=21 samples
Source text: Cell culture. Patient tumor samples (98) and preparations (4) of normal peripheral blood mononuclear cells (PBMC), detailed in Table 1, were used to determine the activity of VLX50 and, for comparison, six other cytotoxic drugs chosen to represent different mechanistic classes.
The tumor samples were obtained by bone marrow/peripheral blood sampling, routine surgery or diagnostic biopsy. Leukemic cells and PBMCs were isolated by 1.077 g ml-1 Ficoll-Paque centrifugation (Larsson et al., 1992). Tumor tissue from solid tumor samples was minced into small pieces and tumor cells were isolated by collagenase dispersion followed by Percoll density gradient centrifugation (Csoka et al., 1994). […] Cell viability was determined by trypan blue exclusion test and the proportion of tumor cells in the preparation was judged by inspection of May-Grunvald-Giemsa stained cytospin slides (FIG. 1a). […]
Fluorometric Microculture Cytotoxicity Assay. The Fluorometric Microculture Cytotoxicity Assay, FMCA, described in detail previously (Lindhagen et al., 2008), is based on measurement of fluorescence generated from hydrolysis of fluorescein diacetate (FDA) to fluorescein by cells with intact plasma membranes. […] Quality criteria for a successful assay included a mean coefficient of variation of less than 30% in the control and a fluorescence signal in control wells of more than 5 times the blank. […]

CCRF-CEM cell line = assay: In vivo hollow fiber assay, CCRF-CEM; details: CCRF-CEM in fibers s.c. in NMRI male mice, single dose 760 μg/mouse s.c., 6 days; P>0.05
Description: In vivo studies. Cells from two ovarian carcinoma patients and the cell line CEM were cultured inside semi-permeable polyvinylidene fluoride fibers and assessed by the hollow fiber assay (Friberg et al., 2005; Jonsson et al., 2000). The fibers were implanted subcutaneously into NMRI male mice (Scanbur, Sollentuna Sweden), which were treated with a single dose (0.76 mg/mouse) of VLX50 subcutaneously, or vehicle only (n=animals/group). Fibers were retrieved after 6 days and cell density evaluated (FIG. 3a) using the MTT (3-[4,5-dimethylthiazol-2-yl]-2,5-diphenyltetrazolium bromide)-assay (Alley et al. 1988). The method is based on the conversion of MTT to blue formazan crystals by living cells. The formazan was extracted by DMSO as previously described (Jonsson et al. 2000), and optical density (OD) read at 570 nm. Cell density for each fiber on retrieval day was expressed as net growth, defined as (OD retrieval day—OD implantation day)/OD implantation day, i.e. the percent change in cell density in the fibers during the 6 days of in vivo experiment. The animals were observed regarding behavior and weight gain throughout the experiment. Blood samples (200 μl) were obtained through the orbital plexus after anesthetization with isofluran just before euthanasia, and analyzed for hematological parameters. […]

For COCCCNC(=S)N/N=C\c1ccccn1 [VLX50, N1-(3-methoxypropyl)-2-(pyridylmethylidene)-hydrazine-1-carbothioamide], the IC50 [1] was 0.055 to 11.2 µM and the “Difference in net growth between treated group and control group” value (CCRF-CEM cell line) was “did not reach statistical significance”.
